Assay results reported in patent US20100203110A1, “Therapeutics for Cancer Using 3-Bromopyruvate and Other Selective Inhibitors of ATP Production” (The Johns Hopkins University, priority 2006, published 2010).

Key:
VX2 tumor [1] = assay: Longitudinal survival studies in the VX2 rabbit model; type: in vivo
Text: In a longitudinal study to investigate the effect of 3-bromopyruvate treatment in the VX2 rabbit model, it was observed that although the treated rabbits lived longer than the untreated ones (statistically significant), the treated rabbits were not cured of their tumors and died within weeks of treatment of massive tumor growth. The extremely aggressive nature of the VX2 tumor was not stopped by the treatment and the tumor re-grew despite the high initial percentage of cancer cell death. Further studies were thus needed to determine the optimal dose and method of infusion of 3-bromopyruvate to attain significant long-term survival, complete eradication of the tumor.
VX2 tumors are extremely aggressive and are rendered more aggressive and difficult to treat by the passage of this tumor from generation to generation (>100) in the thigh of a rabbit making each generation more virulent than the last. […] As described herein continuous intraarterial infusion of 1.7 mM 3-bromopyruvate is an effective and potent therapy for treating liver cancer.

HepG2 [2] = assay: Cell viability, HepG2; type: cell-based, human; conditions: 1 mM for 3 hour
Protocol: Caspase-3 activity and reduced cell viability was also measured in cell lines (HepG2, THLE-2, and VX2 cell lines) following 3-bromopyruvate treatment (1 mM for 3 hour) (FIG. 6A). Caspase-3 activity increased in each cell line following treatment and cell viability decreased following treatment. An increase in caspase-3 activity indicated the mechanism of cell death is apoptotic. FIGS. 6 B and C show cell viability is reduced in each cell line with increasing 3-bromopyruvate concentration after 1 and 3 hours of treatment.

rat mammary tumor (RMT) = assay: FDG uptake after IP injection in tumor bearing rats; type: in vivo
Text: After having established the anti-glycolytic effect of 3-bromopyruvate in vitro, we designed a series of experiments to confirm this property in vivo. For this purpose, two different animal models, the Lewis rat mammary tumor model and the orthotopic VX2 rabbit liver cancer model were used. Since glucose uptake can be monitored using fluorine-labeled deoxyglucose (FDG), potential sites of decreased FDG uptake as a result of 3-bromopyruvate activity could be identified. The effects of intraperitonealy (IP) injected 3-bromopyruvate in non-tumor bearing rats were compared to those in tumor bearing rats. The tumors were derived from the rat mammary tumor (RMT) cell line and transplanted into the back adipose tissue of the rat and allowed to grow for 10 days. After having determined the maximum tolerated dose, all animals received two bolus doses (one hour apart) of 3-bromopyruvate injected IP. The FDG was injected 30 minutes after the first injection of 3-bromopyruvate and all animals were sacrificed 60 minutes after the FDG was injected. The tumors and all major organs were removed, weighed and analyzed in a gamma counter. […]

VX2 tumor [3] = assay: FDG uptake in orthotopic rabbit model of liver cancer, IA versus IV; type: in vivo
Protocol: To develop a new therapeutic strategy to cure patients with hepatocellular carcinoma, a similar series of experiments was conducted on the orthotopic rabbit model of liver cancer (VX2). The effects of 3-bromopyruvate injected intraarterially (IA) was compared to those of 3-bromopyruvate injected intravenously (N) on FDG uptake in the VX2 tumor. The optimal dose of 3-bromopyruvate for both IA and N administration was then determined through an extensive dose-response analysis. In the IA group, 3-bromopyruvate was infused over one hour, FDG injected at the 30-minute mark and all animals were then sacrificed one hour after the FDG injection. Tumors and all major organs were removed, weighed and analyzed in a gamma counter.

HepG2 [4] = assay: ATP levels after treatment, HepG2; type: cell-based, human; conditions: 0.1, 0.2, 0.3 mM for 1 and 3 hours
Protocol: (§1) ATP levels were measured in various cell lines, e.g., HepG2, Sk-Hep1, and Vx-2 after 3-bromopyruvate treatment. In each case, cells were treated with increasing concentration of 3-bromopyruvate (0.1 mM, 0.2 mM, and 0.3 mM) for 1 and 3 hours before measuring ATP levels in the cell. FIGS. 5 (A-C) show the ATP depletion observed following 3-bromopyruvate treatment in HepG2, Sk-Hep1, and Vx-2 cell lines, respectively.

Vx-2 = assay: ATP levels after treatment, Vx-2; type: cell-based, rabbit; conditions: 0.1, 0.2, 0.3 mM for 1 and 3 hours
Protocol: as §1

[5] = test system: mitochondrial respiration of VX2 tumor mitochondria; assay: Mitochondrial respiration (oxygen consumption, Clark electrode); type: biochemical, rabbit; conditions: 1.2 mM; basal (succinate) and ADP stimulated rate
Protocol: The freshly isolated liver or VX2 tumor tissues (15-20 g wet weight) was rinsed in 3 volumes of H-medium (210 mM D-mannitol, 70 mM sucrose, 2 mM Hepes, and 0.05% bovine albumin, pH 7.4) at 4° C. and minced with a razor blade as finely as possible. A 30% (V/V) suspension was made using ice-cold H-medium in a Potter-Elvehjem glass homogenizer (55 ml capacity), and homogenization was achieved by applying 4 complete up and down strokes through the suspension with a rotating (˜400 rpm), serrated, teflon pestle attached to a motor. To remove cell debris and nuclei, the resultant homogenate was diluted to twice the initial volume and centrifuged at 630×g for 8 minutes at 4° C. in a Sorvall RC-2B centrifuge using a GSA rotor. The supernatant was removed and then centrifuged at 6,800 g for 15 min under the same conditions. The resultant supernatant was saved and referred to here as the cytosolic faction. […]
Oxygen consumption rates were measured polarographically using a Clark oxygen electrode inserted into a 2.5 ml chamber equipped with a magnetic stirrer. […] The loss of oxygen was monitored in a 2.1 ml system at 25° C. containing 1 mg mitochondria, 0.5 mM EDTA, 2.0 mM Hepes, 220 mM D-mannitol, 70 mM sucrose, 2.5 mM KPi, 2.6 mM MgCl2, and 0.5 mg/ml bovine albumin, and, where indicated, 7.8 mM succinate (respiratory substrate), and 0.24 mM ADP (ATP synthesis substrate). […]

[6] = IA group, infused over one hour

For O=C(O)C(=O)CBr [3-bromopyruvate], the “survival versus untreated rabbits” value (VX2 tumor [1]; VX2 rabbit model, not cured, tumor re-grew) was “lived longer”, the “delay of tumor progression versus saline (IA) controls” value (VX2 tumor [1]; animals with 100% tumor kill) was 75% and the cell viability (HepG2 [2]) was “decreased”. The “FDG uptake in all other organs” value (rat mammary tumor (RMT); two IP bolus doses) was “unaffected”, the “decrease in FDG uptake in the tumor” value (rat mammary tumor (RMT); two IP bolus doses one hour apart) was 50% and the “FDG uptake in any other organs” value (VX2 tumor [3]; [6]) was “No difference in uptake”. The “reduction of FDG uptake in the tumor” value (VX2 tumor [3]; [6]) was 80%, the “FDG uptake in other organs” value (VX2 tumor [3]; N (intravenous) group) was “decreases in FDG uptake were also recorded in the lung, brain and liver” and the “decrease of FDG uptake in the tumor” value (VX2 tumor [3]; N (intravenous) group) was 30%. The ATP levels (HepG2 [4]) was “ATP depletion”, the ATP levels (Vx-2) was “ATP depletion” and the “inhibition of mitochondrial respiration” value [5] was “completely inhibits”.
